Test results published in patent US10610506B2 (UCL Business PLC, priority 2004, dated 2020).
“Also recorded” adds a separate entry of the source.

Columns and labels:
neutrophils [1] = experiment: Phagotest neutrophil phagocytosis, blood incubated with ammonia and amino acids; type: cell-based, human
Experimental: Methods for Measurement of Neutrophil Phagocytosis and oxidative burst Phagotest: Heparinised whole blood was incubated with opsonised FITC-labelled E coil and CD16. The cells were then analysed by flow cytometry (FACScan Becton Dickinson), gated through forward and side scatter and subsequently assessed on the basis of R-phycoerythrin (PE) [Immunotech, Marseille, France] flurochrome expression to identify CD16 positive cells. The gated population was then assessed for the presence of FITC-labelled bacteria.
(§1) Blood was collected from healthy volunteers (n=15) and incubated for 1 hour with increasing concentrations of ammonia. The ability of the neutrophils to phagocytose bacteria was measured using the Phagotest and Neutrophil chemotaxis assays. 10 ng/ml IL-8 was used in the Neutrophil chemotaxis assay.
Blood was collected from healthy volunteers (n=15) and incubated for 1 hour with ammonia and selected amino acids. The ability of the neutrophils to phagocytose bacteria was measured using the Phagotest assay.

neutrophils [2] = settings: blood incubated 1 hour with increasing concentrations of ammonia; 10 ng/ml IL-8 (FIG. 3)
Experimental: Neutrophil Chemotaxis: Neutrophil chemotaxis was measured using a modified Boyden chamber method using interleukin-8 as chemo-attractant to stimulate chemokinesis.
as §1

[3] = tested on: patients with biopsy proven cirrhosis of the liver; experiment: Simulated gastrointestinal bleed in cirrhotic patients, neutrophil chemotaxis with isoleucine infusion; type: in vivo, human; settings: after simulated bleed (75 g amino acid mixture), isoleucine iv over 2 hours
Source text: Ten overnight fasted, metabolically stable patients with biopsy proven cirrhosis of the liver [9 males and 1 female; mean 49.6 years (SEM 9.1); mean Child-Pugh score of 7.8 (SEM 1.2)] were studied prior to and two hours after an oral administration of 75 grams of an amino acid mixture that mimics the hemoglobin molecule (Nutricia, Cuijk, Netherlands). In seven other patients [4 male and 3 female; mean 51.4 years (SEM 6.7); mean Child-Pugh score of 8.1 (SEM 1.4)], following administration of the amino acid mixture, isoleucine was administered intravenously over a 2 hour period (iso-osmotic solution containing 40 mg/l of isoleucine at a rate of 100 ml/hr). Neutrophil chemotaxis (see Example 1 for method) and plasma ammonia were measured in peripheral venous blood samples.

[4] = tested on: patients with biopsy-proven cirrhosis of the liver; experiment: Simulated bleed with isoleucine supplementation: protein kinetics (Phe model) and ammonia; type: in vivo, human; settings: for Net Balance / Protein breakdown / Protein synthesis: mean ± SEM
Experimental: Sixteen metabolically stable patients with biopsy-proven cirrhosis of the liver were studied. Patients were randomized either to supplementation with isoleucine (40 mg/L solution; 50 ml/hr) or placebo during a simulated bleed over a 4-hour period. Protein synthesis (measured using primed continuous infusion of L-[ring-^2H5]phenylalanine), L-[ring-^2H4]tyrosine and L[ring-^2H2]tyrosine) and ammonia.

[5] = tested on: patients with cirrhosis admitted for management of variceal bleeding; experiment: Open labelled study of isoleucine and OIP after variceal bleeding; type: in vivo, human
Experimental: • 1. Groups—2 patients per group. Total 6 • 2. Inclusion criteria • Adult patients aged 18-80 years, liver cirrhosis documented by histology or clinical criteria, Child B or C, recent Gastrointestinal bleed from varices (<6 hours after presentation), informed consent/assent. • 3. Exclusion criteria • other concomitant neurological disorder, use of another specific ammonia lowering drug, respiratory failure requiring mechanical ventilation and sedation, uncontrolled gastrointestinal bleeding, hypotension requiring inotropes, overt renal failure (creatinine >2 nag/dl), hemodialysis, extracorporeal liver support, known hypersensitivity to any of the study drugs, pregnancy/lactation. Methods
In an open labelled study, we included 6 patients with cirrhosis and who were admitted for management of variceal bleeding. They were matched for the severity of liver disease (see Table 4). They were treated with one of the following regimes for a 3 day period and observations were made for 5 days. The study groups were:
i. Placebo: 5% Dextrose over 4 hours (250 ml)
ii. Isoleucine alone: 10 gm IV in 250 ml 5% Dextrose over 2 hours in two divided doses.
Patients were fasted overnight between 0000 midnight and 0800 am. They were fed intragastrically with a diet of 25 KCal/Kg that included 1 g/Kg protein diet starting at 0800 and finishing at midnight. Blood was sampled at 0730 am and then at 1800 hr for the measurement of ammonia and glutamine. Patients were monitored closely for side effects. The drug was tolerated well in each of the groups and no adverse events were observed. Because the patients received sedation for their initial endoscopy, the mental state assessment was impossible to interpret. One patient each in the Placebo and the Isoelucine groups died from multiorgan failure in the hospital. The rest of the patients survived.

[6] = tested on: patients with cirrhosis and hyperammonemia; experiment: Open labelled study of ornithine, phenylbutyrate and OP in hepatic encephalopathy; type: in vivo, human; settings: for mean ammonia levels: over the period of treatment (FIG. 11); for mean glutamine levels: over the period of treatment (FIG. 12)
Source text: • 1. Groups-3 patients per group. Total 12. • 2. Inclusion criteria • adult patients aged 18-80 years, —liver cirrhosis documented by histology or clinical criteria • HE type C, ammonia concentration of >80 umol/L, informed consent/assent • 3. Exclusion criteria • other concomitant neurological disorder, —use of another specific ammonia lowering drug, —respiratory failure requiring mechanical ventilation and sedation, —uncontrolled gastrointestinal bleeding, —hypotension requiring inotropes, overt renal failure (creatinine >2 mg/dl), hemodialysis, —extracorporeal liver support, known hypersensitivity to any of the study drugs, —pregnancy. Assessment of Mental State
In an open labelled study, we included 8 patients with cirrhosis and hyperammonemia. They were matched for the severity of liver disease (see Table 3). They were treated with one of the following regimes for a 3 day period and observations were made for 5 days. The study groups were:
(i) Placebo: 5% Dextrose over 4 hours;
(iii) Phenylbutyrate: 10 g twice daily, orally (0800 and 1600); and
Patients were fasted overnight between 0000 midnight and 0800 am. They were fed intragastrically with a diet of 25 KCal/Kg that included 1 g/Kg protein diet starting at 0800 and finishing at midnight. Blood was sampled at 0730 am and then at 1800 hr for the measurement of ammonia and glutamine. Patients were monitored closely for side effects.

[7] = tested on: devascularized pig model of acute liver failure; experiment: Devascularized pig model of acute liver failure; type: in vivo, pigs; settings: for muscle ammonia uptake/production (femoral vein-artery): FIG. 23
Experimental: Pigs had catheters inserted into the femoral artery and vein, portal vein, renal vein and pulmonary artery. The experiment started at time=−1 hr, when placebo or treatment infusions were started.
1. Placebo: 5% Dextrose over 3 hours, oral water placebo
At the end of the experiment a section of frontal cortex was removed for brain water measurements.

[8] = tested on: patients with advanced cirrhosis; experiment: Aspartate accumulation during L-ornithine L-aspartate treatment; type: in vivo, human
patients with cirrhosis = experiment: LOLA infusion in cirrhosis with HE: ammonia and glutamine; type: in vivo, human
Source text: (§2) Blood was sampled for the measurement of ammonia and glutamine.

[9] = tested on: patients with HE grade 3 undergoing heamofiltration; experiment: LOLA infusion in patients undergoing heamofiltration (CVVH); type: in vivo, human
Source text: as §2

BDL cirrhotic rats = experiment: Bile duct ligated rat model, IP ornithine, phenylbutyrate, OP; type: in vivo, Sprague-Dawley rats
Experimental: Male Sprague-Dawley rats (200-250 g) were used for this procedure. Following anaesthetisation, a mid-line laparotamy was performed, the bile duct was exposed, triply ligated with 4.0 silk suture, and severed between the second and third ligature. The wound was closed in layers with absorbable suture, and the animal allowed to recover in a quiet room before being returned to the animal storage facility. Animals were kept at a constant temperature (20° C.) in a 12 hour light/dark cycle with access to water and standard rodent chow ad libitum. […] At six weeks, under anaesthesia a right carotid arterial catheter was inserted and used to collect repeated blood samples. Following this procedure a baseline sample was collected prior to administration of the study formulations by IP injection. […] Blood samples were collected into pre-cooled […] tubes and stored on ice prior to processing. Plasma was collected following centrifugation (3,000 rpm, 10 mins) and stored at -80° C. prior to analyses. Ammonia, glucose, lactate and urea were measured using a COBRAS Mira S according to manufacturers instructions. Amino acids were quantified by HPLC with fluorescence detection.

[10] = LOLA 40 g over 8 hours (FIG. 8)

N [ammonia]
neutrophil phagocytosis (neutrophils [1]; blood of healthy volunteers incubated 1 hour with increasing concentrations of ammonia (FIG. 2)): significant reduction | neutrophil chemotaxis (neutrophils [2]): significant reduction

NC(=O)CC[C@H](N)C(=O)O [glutamine]
ammonia-induced reduction in neutrophil phagocytosis (neutrophils [1]; blood incubated 1 hour with ammonia and selected amino acid (FIG. 4)): partially reversed

CC[C@H](C)[C@H](N)C(=O)O [isoleucine]
neutrophil chemotaxis [3]: 25.4 (±6.0) cells/high power field | Net Balance ([4]; Leg, End): 261 ± 102 nmol/kg body cell mass/min | Protein breakdown ([4]; Leg, End): 159 ± 100 nmol/kg body cell mass/min | Protein synthesis ([4]; Leg, End): 377 ± 135 nmol/kg body cell mass/min | Net Balance ([4]; Leg, t = 0 hours): −185 ± 152 nmol/kg body cell mass/min | Protein breakdown ([4]; Leg, t = 0 hours): 196 ± 61 nmol/kg body cell mass/min | Protein synthesis ([4]; Leg, t = 0 hours): −31 ± 201 nmol/kg body cell mass/min | Protein synthesis ([4]; Liver, End (final hour of amino acid infusion)): 839 ± 221 nmol/kg body cell mass/min | Net Balance ([4]; Liver, End): 682 ± 165 nmol/kg body cell mass/min | Protein breakdown ([4]; Liver, End): 157 ± 204 nmol/kg body cell mass/min | Net Balance ([4]; Liver, t = 0 hours): 98 ± 33 nmol/kg body cell mass/min | Protein breakdown ([4]; Liver, t = 0 hours): 109 ± 25 nmol/kg body cell mass/min | Protein synthesis ([4]; Liver, t = 0 hours): 218 ± 37 nmol/kg body cell mass/min | protein synthesis of liver and muscle ([4]; isoleucine infusion during simulated bleed): restores impaired protein synthesis | ammonia concentration, isoleucine versus placebo ([4]; simulated bleed over 4 hours (FIG. 7)): not significantly different | patients died from multiorgan failure in the hospital ([5]; 2 patients per group): One | ammonia concentrations ([5]; FIG. 14): no significant changes | glutamine levels ([5]; FIG. 15): not significantly altered | Dead/Alive ([5]; individual patients P3-P6, listed as Isoleucine alone): P3: A; also recorded: P4: D

NCCC[C@H](N)C(=O)O [ornithine]
mean ammonia levels [6]: increased from baseline values | mean glutamine levels [6]: increase | Ornithine levels ([5]; over the course of OIP treatment, reduced to basal values on stopping the drug (FIG. 18)): marked sustained increase | arterial ornithine levels ([7]; FIG. 27): increase

L-ornithine L-aspartate [LOLA]
ASPARTATE concentration ([8]; Day 1, 40 g/day): 178 µmol/L | ASPARTATE concentration ([8]; Day 2, 40 g/day): 289 µmol/L | ASPARTATE concentration ([8]; Day 3, 40 g/day): 354 µmol/L | ASPARTATE concentration ([8]; PRE, 40 g/day L-ornithine L-aspartate): 72 µmol/L | increase in the aspartate concentration ([8]; over a 3 day period): 5 times the basal value | severity of HE (patients with cirrhosis; LOLA 40 g over 8 hours): beneficial effects | ammonia concentration (patients with cirrhosis; [10]): significant reduction | glutamine concentration (patients with cirrhosis; [10]): concomitant rise | recurrence of HE (patients with cirrhosis; after LOLA was stopped): 3 of the 6 | circulating ammonia levels when LOLA was stopped (patients with cirrhosis; after stopping infusion): rebound increase | ammonia concentration ([9]; LOLA 40 g over 8 hours with CVVH (FIG. 9)): reduction | glutamine concentration ([9]; LOLA with addition of dialysis (FIG. 9)): prevented the concomitant increase

phenylbutyrate
Dead/Alive ([6]; individual patients P3-P8, listed as Phenylbutyrate alone): P5: A; also recorded: P6: A | mean ammonia levels [6]: increased from baseline values | mean glutamine levels [6]: reduction | plasma ammonia (BDL cirrhotic rats; after 1 hour, p<0.01 vs all other groups): significant increase | plasma ammonia (BDL cirrhotic rats; three hour time point / end of the study): difference was found to be smaller | arterial ammonia ([7]; 0.3 g/Kg each over 3 hours, to experiment termination (FIG. 22), listed as Phenylbutyrate alone): initial blunting of arterial ammonia levels, which quickly rises to levels comparable with ornithine alone at experiment termination; also recorded: insignificant effects | muscle ammonia uptake/production (femoral vein-artery) ([7]; listed as P alone): increase in ammonia production by the muscle | muscle ammonia uptake/production (femoral vein-artery) ([7]; listed as Phenylbutyrate alone): little change | gut ammonia production (portal drained viscera-artery) ([7]; FIG. 24): appreciable | muscle glutamine release ([7]; FIG. 25, listed as Phenylbutyrate alone): net removal | gut glutamine uptake ([7]; FIG. 26): little overt effect | arterial glutamine levels ([7]; FIG. 28): marginally increases
